Key:
[1] = system: d-amphetamine/chlordiazepoxide mixture (AMPH/CDP)-induced hyperactivity in mice; experiment: d-Amphetamine/chlordiazepoxide (AMPH/CDP) hyperactivity test (Example 4A); assay type: in vivo, mouse; settings: test condition AMPH/CDP; 400 mg/kg IP, 30 min pretreatment
Method: (§1) Cariprazine hydrochloride and escitalopram oxalate were evaluated for anti-manic effects using the amphetamine/chlordiazepoxide (AMPH/CDP) hyperactivity test.
(§2) Male C57B1/6J mice from Jackson Laboratories (Bar Harbor, Me.) were used in this study. Mice were received at 6-weeks of age. Upon receipt, mice were assigned unique identification numbers (tail marked) and were group housed with 4 mice/cage. All animals remained housed in groups of four during the remainder of the study. All mice were acclimated to the colony room for at least two weeks prior to testing and were subsequently tested at an average age of 8 weeks of age. During the period of acclimation, mice were examined on a regular basis, handled, and weighed to assure adequate health and suitability. Mice were maintained on a 12/12 light/dark cycle. The room temperature was maintained between 20 and 23° C. with a relative humidity maintained between 30% and 70%. Chow and water were provided ad libitum for the duration of the study. In each test, animals were randomly assigned across treatment groups.
(§3) d-Amphetamine sulfate (Sigma, 4.0 mg/kg) and chlordiazepoxide (CDP; Sigma, 2.5 mg/kg) were dissolved in sterile water and were administered intraperitoneally at a dose volume of 10 ml/kg.
(§4) Distance traveled is measured by consecutive beam breaks.
(§5) Data was analyzed by analysis of variance (ANOVA) followed by Fisher PLSD post-hoc analysis when appropriate. An effect was considered significant if p<0.05. Outliers that fell above and below two standard deviations from the mean were removed from the final analysis.

[2] = system: basal locomotor activity of mice; experiment: Open field, basal locomotor activity of mice (Example 4B); assay type: in vivo, mouse; settings: test condition water; 400 mg/kg IP
Method: as §1
(§6) Male C57B1/6J mice (8 weeks old) from Jackson Laboratories (Bar Harbor, Me.) were used in this study. Upon receipt, mice were assigned unique identification numbers (tail marked) and were group housed (4 mice/cage) in OPTI mouse ventilated cages. All animals remained housed in groups of four during the remainder of the study. During the period of acclimation, mice were examined on a regular basis, handled, and weighed to assure adequate health and suitability. Mice were maintained on a 12/12 light/dark cycle. The room temperature was maintained between 20 and 23° C. with a relative humidity maintained between 30% and 70%. Chow and water were provided ad libitum for the duration of the study. In each test, animals were randomly assigned across treatment groups.
as §4, §5

[3] = system: d-amphetamine/chlordiazepoxide mixture (AMPH/CDP)-induced hyperactivity in mice; experiment: d-Amphetamine/chlordiazepoxide (AMPH/CDP) hyperactivity test (Example 4B); assay type: in vivo, mouse; settings: test condition AMPH/CDP; 400 mg/kg IP
Method: as §1, §6, §3, §4, §5

[4] = system: basal locomotor activity of mice; experiment: Open field, basal locomotor activity of mice (Example 4A); assay type: in vivo, mouse; settings: test condition water; 400 mg/kg IP, 30 min pretreatment
Method: as §1, §2, §4, §5

[5] = system: chronic mild stress (CMS) model of depression; experiment: Chronic mild stress (CMS) model of depression, sucrose consumption (Example 2); assay type: in vivo, rat; settings: imipramine 10 mg/kg IP once daily, stressed animals
Excerpt: This study evaluated the antidepressant effect of cariprazine hydrochloride in the chronic mild stress (CMS) model of depression. A comparison to the efficacy of the tricyciclic antidepressant compound imipramine was also made.
Male Wistar rats were adapted to laboratory and housing conditions for 3 weeks, followed by adoption to consumption of 1% sucrose solution for an additional 5 weeks before being separated into control and to-be-stressed groups.
Chronic stress was applied to the allocated group for seven weeks. The following stressors were used: food and/or water deprivation, cage tilting (45 degrees backwards), intermittent illumination, paired housing, soiled cage (250 mL of tap water in sawdust bedding), stroboscopic illumination (150 flashed per minute), no stress. All stressors were 10-14 hours in duration and were applied individually and continuously, once or twice weekly, during the day and at night.
Consumption of sucrose solution was measured in 1-hour tests conducted on all animals (i.e., controls and stressed) once weekly throughout the entire experiment. The tests were preceded by 14 hours of food and water deprivation. On the basis of their sucrose intakes following the initial 2 weeks of stress, both stressed and control animals received once-daily chronic (5 weeks) IP injections of vehicle (1% methyl cellulose, 1 mL/kg), cariprazine hydrochloride (0.0625, 0.25 or 1.0 mg/kg), or imipramine (10 mg/kg) as reference treatment. […] These animals were considered weak responders/non-responders and were eliminated from the analysis.

[6] = system: chronic mild stress (CMS) model of depression; experiment: Chronic mild stress (CMS) model of depression, sucrose consumption (Example 3); assay type: in vivo, rat; settings: imipramine, reference treatment in parallel studies
Excerpt: Similar to the study described in Example 2, additional studies were undertaken to further evaluate the antidepressant effect of cariprazine hydrochloride, administered alone, or in combination with escitalopram oxalate, in a chronic mild stress model of depression
In the chronic mild stress (CMS) model, rats subjected to a variety of mild stressors for a prolonged period of time show a substantial decrease in their responsiveness to rewarding stimuli. This deficit is usually monitored by a decrease in the consumption of a 1% sucrose solution, but can also be seen in other tests, such as place preference conditioning or intracranial self-stimulation. The subsensitivity to reward appears to reflect anhedonia (inability to experience pleasure), which is a core symptom of major depressive disorders. Clinically approved antidepressants have shown activity in this animal model by reversing the effects of CMS on sucrose consumption. See, e.g., Sanchez C, Gruca P, Papp M, Behavioural Pharmacology 14, 465-470, 2003.
Male Wistar rats (Charles River, Germany) were brought into the laboratory two months before the start of the experiment. Except as described below, the animals were singly housed with food and water freely available, and were maintained on a 12-h light/dark and in a constant temperature (22±2° C.) and humidity (50±5%) conditions.
The animals were first trained to consume a 1% sucrose solution; training consisted of nine 1 h baseline tests in which sucrose was presented, in the home cage, following 14 h food and water deprivation. The sucrose intake was measured by weighing pre-weighed bottles containing the sucrose solution, at the end of the test. Subsequently, sucrose consumption was monitored, under similar conditions, at weekly intervals throughout the whole experiment.
On the basis of their sucrose intakes in the final baseline test, the animals were divided into two matched groups. One group of animals was subjected to the chronic mild stress procedure for a period of 7 consecutive weeks. Each week of stress regime consisted of: two periods of food or water deprivation, two periods of 45 degree cage tilt, two periods of intermittent illumination (lights on and off every 2 h), two periods of soiled cage (250 ml water in sawdust bedding), one period of paired housing, two periods of low intensity stroboscopic illumination (150 flashes/min), and three periods of no stress. All stressors were 10-14 h of duration and were applied individually and continuously, day and night. Control animals were housed in separate rooms and had no contact with the stressed animals. They were deprived of food and water for 14 h preceding each sucrose test, but otherwise food and water were freely available in the home cage.

SMILES	Total Distance Traveled [mean ± SEM] [1] [cm/60 min]	Total Distance Traveled [mean ± SEM] [2] [cm/60 min]	Total Distance Traveled [mean ± SEM] [3] [cm/60 min]	Total Distance Traveled [mean ± SEM] [4] [cm/60 min]	CMS-induced decrease in consumption of 1% sucrose solution ([5]; 5 weeks)	onset of action: effect on sucrose drinking evident at [5] [Week]	time until effect on sucrose consumption reached significance [6]
CCCC(CCC)C(=O)O [Valproate]	17496 ± 1788	3365 ± 612	18478 ± 2961	4471 ± 298	–	–	–
CN(C)CCCN1c2ccccc2CCc2ccccc21 [imipramine, reference compound]	–	–	–	–	fully reversed	3	after three weeks of administration

Source: patent US20110015208A1, “PHARMACEUTICAL COMPOSITIONS CONTAINING DOPAMINE RECEPTOR LIGANDS AND METHODS OF TREATMENT USING DOPAMINE RECEPTOR LIGANDS” (priority 2007, published 2011)
